What was measured:
[1] = test system: HL-60(TB); assay: Growth inhibition of human HL-60(TB) cells incubated for 48 hrs by sulforhodamine B assay; format: functional, cell-based; conditions: HL-60, 48 h
[2] = test system: SR; assay: Growth inhibition of human SR cells incubated for 48 hrs by sulforhodamine B assay; format: functional, cell-based
[3] = test system: LOX IMVI; assay: Growth inhibition of human LOXIMVI cells incubated for 48 hrs by sulforhodamine B assay; format: functional
[4] = test system: M14; assay: Growth inhibition of human M14 cells incubated for 48 hrs by sulforhodamine B assay; format: functional, cell-based; conditions: M14, 48 h
[5] = test system: SK-MEL-5; assay: Growth inhibition of human SK-MEL-5 cells incubated for 48 hrs by sulforhodamine B assay; format: functional, cell-based; conditions: SK-MEL-5, 48 h
[6] = test system: IGROV-1; assay: Growth inhibition of human IGROV1 cells incubated for 48 hrs by sulforhodamine B assay; format: functional, cell-based; conditions: IGROV-1, 48 h
[7] = test system: ACHN; assay: Growth inhibition of human ACHN cells incubated for 48 hrs by sulforhodamine B assay; format: functional, cell-based
[8] = test system: CAKI-1; assay: Growth inhibition of human Caki1 cells incubated for 48 hrs by sulforhodamine B assay; format: functional, cell-based; conditions: CAKI-1, 48 h
[9] = test system: HOP-62; assay: Growth inhibition of human HOP62 cells assessed as cell growth at 0.01 uM incubated for 48 hrs by sulforhodamine B assay relative to control; format: functional; conditions: HOP-62, 48 h, read-out: Activity
[10] = test system: SNB-19; assay: Growth inhibition of human SNB19 cells assessed as cell growth at 0.01 uM incubated for 48 hrs by sulforhodamine B assay relative to control; format: functional; conditions: SNB-19, 48 h, read-out: Activity
[11] = test system: U-251; assay: Growth inhibition of human U251 cells assessed as cell growth at 0.01 uM incubated for 48 hrs by sulforhodamine B assay relative to control; format: functional; conditions: U-251, 48 h, read-out: Activity
[12] = test system: MDA-MB-231; assay: Growth inhibition of human MDA-MB-231 cells assessed as cell growth at 0.01 uM incubated for 48 hrs by sulforhodamine B assay relative to control; format: functional; conditions: MDA-MB-231, 48 h, read-out: Activity
[13] = test system: HCC 2998; assay: Growth inhibition of human HCC2998 cells assessed as cell growth at 0.1 uM incubated for 48 hrs by sulforhodamine B assay relative to control; format: functional; conditions: HCC 2998, 48 h, read-out: Activity
[14] = test system: OVCAR-5; assay: Growth inhibition of human OVCAR5 cells assessed as cell growth at 0.1 uM incubated for 48 hrs by sulforhodamine B assay relative to control; format: functional; conditions: OVCAR-5, 48 h, read-out: Activity
[15] = test system: MDA-MB-231; assay: Growth inhibition of human MDA-MB-231 cells assessed as cell growth at 0.1 uM incubated for 48 hrs by sulforhodamine B assay relative to control; format: functional; conditions: MDA-MB-231, 48 h, read-out: Activity
[16] = test system: K562; assay: Growth inhibition of human K562 cells assessed as cell growth at 1 uM incubated for 48 hrs by sulforhodamine B assay relative to control; format: functional; conditions: K562, 48 h, read-out: Activity
[17] = test system: NCI-H23; assay: Growth inhibition of human NCI-H23 cells assessed as cell growth at 1 uM incubated for 48 hrs by sulforhodamine B assay relative to control; format: functional; conditions: NCI-H23, 48 h, read-out: Activity
[18] = test system: HT-29; assay: Growth inhibition of human HT-29 cells assessed as cell growth at 1 uM incubated for 48 hrs by sulforhodamine B assay relative to control; format: functional; conditions: HT-29, 48 h, read-out: Activity
[19] = test system: SF-539; assay: Growth inhibition of human SF539 cells assessed as cell growth at 1 uM incubated for 48 hrs by sulforhodamine B assay relative to control; format: functional; conditions: SF-539, 48 h, read-out: Activity
[20] = test system: Malme-3M; assay: Growth inhibition of human MALME-3M cells assessed as cell growth at 1 uM incubated for 48 hrs by sulforhodamine B assay relative to control; format: functional; conditions: read-out: Activity
[21] = test system: UACC-257; assay: Growth inhibition of human UACC257 cells assessed as cell growth at 1 uM incubated for 48 hrs by sulforhodamine B assay relative to control; format: functional; conditions: UACC-257, 48 h, read-out: Activity
[22] = test system: HL-60(TB); assay: Growth inhibition of human HL-60(TB) cells assessed as cell growth at 100 uM incubated for 48 hrs by sulforhodamine B assay relative to control; format: functional; conditions: HL-60, 48 h, read-out: Activity
[23] = test system: MOLT-4; assay: Growth inhibition of human MOLT4 cells assessed as cell growth at 100 uM incubated for 48 hrs by sulforhodamine B assay relative to control; format: functional; conditions: MOLT-4, 48 h, read-out: Activity
[24] = test system: SR; assay: Growth inhibition of human SR cells assessed as cell growth at 100 uM incubated for 48 hrs by sulforhodamine B assay relative to control; format: functional; conditions: read-out: Activity
[25] = test system: HOP-62; assay: Growth inhibition of human HOP62 cells assessed as cell growth at 100 uM incubated for 48 hrs by sulforhodamine B assay relative to control; format: functional; conditions: HOP-62, 48 h, read-out: Activity
[26] = test system: SF-295; assay: Growth inhibition of human SF295 cells assessed as cell growth at 100 uM incubated for 48 hrs by sulforhodamine B assay relative to control; format: functional; conditions: SF-295, 48 h, read-out: Activity
[27] = test system: MDA-MB-435; assay: Growth inhibition of human MDA-MB-435 cells assessed as cell growth at 100 uM incubated for 48 hrs by sulforhodamine B assay relative to control; format: functional; conditions: MDA-MB-435, 48 h, read-out: Activity
[28] = test system: OVCAR-8; assay: Growth inhibition of human OVCAR8 cells assessed as cell growth at 100 uM incubated for 48 hrs by sulforhodamine B assay relative to control; format: functional; conditions: OVCAR-8, 48 h, read-out: Activity
[29] = read-out: LC50 (the source's name)
[30] = read-out: pLC50 (the source's name) (converted)

COc1cc(Cl)cc(-c2nn(-c3cccc(NC(=O)Nc4ccc(Cl)c(C(F)(F)F)c4)c3)cc2-c2ccncc2)c1
GI50 ([1]; read-out: GI50): 1.55 µM
LC50 ([1]; read-out: LC50): > 100 µM
TGI ([1]; read-out: TGI): 55.3 µM
GI50 ([1]; read-out: pGI50 (converted)): 1.66 µM
LC50 ([1]; read-out: pLC50 (converted)): > 100 µM
TGI ([1]; read-out: pTGI (converted)): 5.5 µM
GI50 ([2]; read-out: GI50): 1.06 µM
CC50 [2, 29]: > 100 µM
TGI ([2]; read-out: TGI): 43.8 µM
GI50 ([2]; read-out: pGI50 (converted)): 1.07 µM
CC50 [2, 30]: > 100 µM
TGI ([2]; read-out: pTGI (converted)): 4.37 µM
GI50 ([3]; read-out: GI50): 1.23 µM
TGI ([3]; read-out: TGI): 31.4 µM
GI50 ([3]; read-out: pGI50 (converted)): 1.23 µM
GI50 ([4]; read-out: GI50): 1.33 µM
CC50 [4, 29]: 0.05 µM
TGI ([4]; read-out: TGI): 34.7 µM
GI50 ([4]; read-out: pGI50 (converted)): 1.32 µM
CC50 [4, 30]: 9.12 µM
TGI ([4]; read-out: pTGI (converted)): 8.51 µM
GI50 ([5]; read-out: GI50): 1.54 µM
CC50 [5, 29]: 5.58 µM
TGI ([5]; read-out: TGI): 29.3 µM
GI50 ([5]; read-out: pGI50 (converted)): 1.55 µM
CC50 [5, 30]: 5.62 µM
TGI ([5]; read-out: pTGI (converted)): 8.32 µM
GI50 ([6]; read-out: GI50): 3.2 µM
CC50 [6, 29]: > 100 µM
TGI ([6]; read-out: TGI): 29.1 µM
GI50 ([6]; read-out: pGI50 (converted)): 3.24 µM
CC50 [6, 30]: > 100 µM
TGI ([6]; read-out: pTGI (converted)): 3.55 µM
GI50 ([7]; read-out: GI50): 0.752 µM
CC50 [7, 29]: > 100 µM
TGI ([7]; read-out: TGI): 10.2 µM
GI50 ([7]; read-out: pGI50 (converted)): 0.759 µM
CC50 [7, 30]: > 100 µM
TGI ([7]; read-out: pTGI (converted)): 14.5 µM
GI50 ([8]; read-out: GI50): 0.615 µM
CC50 [8, 29]: > 100 µM
TGI ([8]; read-out: TGI): 94.3 µM
GI50 ([8]; read-out: pGI50 (converted)): 0.813 µM
CC50 [8, 30]: > 100 µM
TGI ([8]; read-out: pTGI (converted)): 10.2 µM
growth at 0.01 µM [9]: 100%
growth at 0.01 µM [10]: 92%
growth at 0.01 µM [11]: 98%
growth at 0.01 µM [12]: 93%
growth at 0.1 µM [13]: 94%
growth at 0.1 µM [14]: 73%
growth at 0.1 µM [15]: 91%
growth at 1 µM [16]: 35%
growth at 1 µM [17]: 60%
growth at 1 µM [18]: 55%
growth at 1 µM [19]: 75%
growth at 1 µM [20]: 67%
growth at 1 µM [21]: 83%
growth at 100 µM [22]: -22%
growth at 100 µM [23]: -28%
growth at 100 µM [24]: -30%
growth at 100 µM [25]: -48%
growth at 100 µM [26]: -82%
growth at 100 µM [27]: -40%
growth at 100 µM [28]: -33%
